Reference: ChEMBL document CHEMBL5576149, “Discovery of Potent STT3A/B Inhibitors and Assessment of Their Multipathogen Antiviral Potential and Safety” (J Med Chem, 2024)
In brackets after ≈: the same amount, converted by molar mass. Activity calls are given as the source filed them. The rule behind the calls is not given here.

How the values were obtained:
[1] = Inhibition of STT3A/STT3B mediated N-linked glycosylation in human H1-HeLa cells stably transduced with ERluc by measuring effective concentration of inhibition incubated for 18 hrs by One-Glo luciferase reporter assay; format: cell-based
[2] = Chromatographic hydrophobicity index, logD of the compound at pH 7.4; format: physicochemical; conditions: buffer
[3] = Unbound clearance in human liver microsomes at 0.5 uM incubated upto 45 mins; format: ADME, Microsome; conditions: 0.75 h
[4] = Unbound clearance in rat liver microsomes at 0.5 uM incubated upto 45 mins; format: ADME, Microsome; conditions: 0.75 h
[5] = Solubility of compound in FaSSIF; format: ADME
[6] = Unbound clearance in Wistar Han rat at 2 mg/kg,po or 1 mg/kg,iv administrated upto 60 mins by LC-MS/MS analysis; format: ADME, organism-based; conditions: in vivo, 1 h
[7] = Volume of distribution at steady state in Wistar Han rat at 2 mg/kg,po or 1 mg/kg,iv administrated upto 60 mins by LC-MS/MS analysis; format: ADME, organism-based; conditions: in vivo, 1 h
[8] = MRT in Wistar Han rat at 2 mg/kg,po or 1 mg/kg,iv administrated upto 60 mins by LC-MS/MS analysis; format: ADME, organism-based; conditions: in vivo
[9] = Bioavailability in Wistar Han rat at 2 mg/kg,po or 1 mg/kg,iv administrated upto 60 mins by LC-MS/MS analysis; format: ADME, organism-based; conditions: in vivo
[10] = system: Human respirovirus 3; assay: Antiviral activity against Human parainfluenza virus 3 JS infected in human A549 cells assessed as reduction in viral proliferation incubated for 44 hrs by Hoechst dye based fluorescence analysis; format: functional, organism-based; conditions: Human respirovirus 3, JS, A549, 44 h
[11] = system: Human coronavirus 229E; assay: Antiviral activity against Human coronavirus 229E infected in human MRC5 cells assessed as reduction in viral growth incubated for 68 hrs by CellTiter-Glo luminescence assay; format: functional, organism-based; conditions: MRC5, 68 h
[12] = system: SARS-CoV-2; assay: Antiviral activity against SARS-CoV-2 infected in human A549 cells assessed as reduction in viral growth incubated for 24 hrs by Nano-Glo reagent based analysis; format: functional, organism-based; conditions: Severe acute respiratory syndrome coronavirus 2, A549, 24 h
[13] = Cytotoxicity against human Hepatocyte cultured as 3D spheroids incubated for 14 days by CellTiter-Glo luminescence assay; format: toxicity, cell-based; conditions: hepatocytes cultured as 3D spheroids
[14] = system: A549; assay: Cytotoxicity against human A549 cells by fluorescent cell imaging assay; format: functional
[15] = Cytotoxicity against human MRC5 cells by luminescence-based cell viability assay; format: toxicity
[16] = system: HepG2; assay: Selectivity ratio of apparent dissociation constant for binding affinity to STT3A in human HepG2 cells to apparent dissociation constant for binding affinity to STT3B in human HepG2 cells; format: cell-based
[17] = Unbound clearance in CD1 mouse at 2 mg/kg,po or 1 mg/kg,iv administrated upto 60 mins by LC-MS/MS analysis; format: ADME, organism-based; conditions: in vivo, 1 h
[18] = Volume of distribution at steady state in CD1 mouse at 2 mg/kg,po or 1 mg/kg,iv administrated upto 60 mins by LC-MS/MS analysis; format: ADME, organism-based; conditions: in vivo, 1 h
[19] = MRT in CD1 mouse at 2 mg/kg,po or 1 mg/kg,iv administrated upto 60 mins by LC-MS/MS analysis; format: ADME, organism-based; conditions: in vivo
[20] = Bioavailability in CD1 mouse at 2 mg/kg,po or 1 mg/kg,iv administrated upto 60 mins by LC-MS/MS analysis; format: ADME, organism-based; conditions: in vivo
[21] = Unbound clearance in mouse liver microsomes at 0.5 uM incubated upto 45 mins; format: ADME, Microsome; conditions: 0.75 h
[22] = Inhibition of STT3A/STT3B mediated N-linked glycosylation in STT3A knockout human H1-HeLa cells stably transduced with Halo3N-ER sequence by measuring effective concentration incubated for 24 hrs by Western blotting analysis; format: cell-based
[23] = Inhibition of STT3A/STT3B mediated N-linked glycosylation in STT3B knockout human H1-HeLa cells stably transduced with Halo3N-ER sequence by measuring effective concentration incubated for 24 hrs by Western blotting analysis; format: cell-based
[24] = system: Mus musculus; assay: In vivo inhibition of STT3A/STT3B in C57BL/6 mouse assessed as upregulation of DERL3 expression in blood at 0.1 to 10 mg/kg,po measured after 6 hrs by RT-qPCR analysis; format: functional, organism-based; conditions: dose 0.1-10 mg/kg
[25] = system: Mus musculus; assay: In vivo inhibition of STT3A/STT3B in C57BL/6 mouse assessed as upregulation of SDF2L1 expression in blood at 0.1 to 10 mg/kg,po measured after 6 hrs by RT-qPCR analysis; format: functional, organism-based; conditions: dose 0.1-10 mg/kg
[26] = system: Mus musculus; assay: In vivo inhibition of STT3A/STT3B in C57BL/6 mouse assessed as upregulation of […] expression in blood at 0.1 to 10 mg/kg,po measured after 6 hrs by RT-qPCR analysis; format: functional, organism-based; conditions: dose 0.1-10 mg/kg
[27] = system: Mus musculus; assay: In vivo inhibition of STT3A/STT3B in C57BL/6 mouse assessed as upregulation of MANF expression in blood at 0.1 to 10 mg/kg,po measured after 6 hrs by RT-qPCR analysis; format: functional, organism-based; conditions: dose 0.1-10 mg/kg
[28] = system: Mus musculus; assay: In vivo inhibition of STT3A/STT3B in C57BL/6 mouse assessed as upregulation of DERL3 expression in lung at 0.1 to 10 mg/kg,po measured after 6 hrs by RT-qPCR analysis; format: functional, organism-based; conditions: dose 0.1-10 mg/kg
[29] = system: Mus musculus; assay: In vivo inhibition of STT3A/STT3B in C57BL/6 mouse assessed as upregulation of SDF2L1 expression in lung at 0.1 to 10 mg/kg,po measured after 6 hrs by RT-qPCR analysis; format: functional, organism-based; conditions: dose 0.1-10 mg/kg
[30] = system: Mus musculus; assay: In vivo inhibition of STT3A/STT3B in C57BL/6 mouse assessed as upregulation of […] expression in lung at 0.1 to 10 mg/kg,po measured after 6 hrs by RT-qPCR analysis; format: functional, organism-based; conditions: dose 0.1-10 mg/kg
[31] = system: Mus musculus; assay: In vivo inhibition of STT3A/STT3B in C57BL/6 mouse assessed as upregulation of MANF expression in lung at 0.1 to 10 mg/kg,po measured after 6 hrs by RT-qPCR analysis; format: functional, organism-based; conditions: dose 0.1-10 mg/kg

CN(C)S(=O)(=O)c1ccc(N2CCC(F)(F)C2)c(-c2cc3ccccc3[nH]2)c1
EC50 [1]: 107 nM
chromatographic logD [2]: 6.6
CL free [3]: 526 mL/min/kg
CL free [4]: 27713 mL/min/kg

CN(C)S(=O)(=O)c1ccc(N2CCCC2)c(-c2cc3ccc(F)cc3[nH]2)c1
EC50 [1]: 62 nM

Cc1cnc(NC(=O)c2cc(S(=O)(=O)N(C)C)ccc2N2CCCC2)s1
EC50 [1]: 589 nM
chromatographic logD [2]: 4.9
CL free [4]: ~ 2000 ml/min.kg
solubility [5]: < 1 µg/mL
CL free [6]: ~ 10000 ml/min.kg
Vdss [7]: 1.9 L/kg
MRT [8]: 0.3 h
bioavailability [9]: 0.6%
EC50 [10]: 379 nM
EC50 [11]: 1360 nM
EC50 [12]: 1360 nM
IC50 at 14 days [13]: 20000 nM

Cc1ccc2cc(-c3cc(S(=O)(=O)N(C)CC(=O)N4CCOC[C@@H]4C)ccc3N3CCCC3)[nH]c2c1
EC50 [1]: 1 nM
EC50 [10]: 12 nM
EC50 [11]: 5 nM
CC50 [14]: 57 nM
CC50 [15]: 199 nM
Selectivity ratio [16]: 10

CN(C)S(=O)(=O)c1ccc(N2CCCC2)c(-c2cc3ccncc3[nH]2)c1
EC50 [1]: 394 nM

C[S@@](=N)(=O)c1ccc(N2CC[C@H](O)C2)c(-c2cc3ccccc3[nH]2)c1
EC50 [1]: 15 nM
chromatographic logD [2]: 2.7
CL free [3]: < 12 mL/min/kg
solubility [5]: 767 µg/mL (≈ 2160 µM)
CL free [17]: 38 mL/min/kg
Vdss [18]: 2 L/kg
MRT [19]: 3 h
bioavailability [20]: 62%
CL free [21]: 30 mL/min/kg
IC50 at 14 days [13]: < 1200 nM
EC50 [22]: 28 nM
EC50 [23]: 10 nM
inhibition [24]: Active
inhibition [25]: Active
inhibition [26]: Active
inhibition [27]: Active
inhibition [28]: Active
inhibition [29]: Active
inhibition [30]: Active
inhibition [31]: Active
